Consider 24 compounds from PMC5442318, “Hundreds of dual-stage antimalarial molecules discovered by a functional gametocyte screen” (Nature Communications, 2017).

Each structure is given as a SMILES string. Like-named read-outs stand apart in the source and are kept apart here.

Data set [1] relates to P. falciparum stage V female gametocytes. The data set is described as follows: P. falciparum female gametocyte activation assay (Pf FGAA), 24 h or 48 h preincubation, Pfs25 expression readout. The data set is classed as cell-based, Plasmodium falciparum NF54. The conditions noted are these: mean, read-out: Gametocytes mean Pf FGAA IC50. The procedure, abridged: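 Female activation, triggered by xanthurenic acid and cooling, was scored by imaging Cy3-labelled anti-Pfs25 female gametes after 24 h at 26 °C. Beforehand, purified NF54 stage V gametocytes had been incubated with compound for either 24 h or 48 h (37 °C, 3% O2). Values are pIC50 from full-curve regression.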

For data set [2], the system named is P. falciparum stages IV–V gametocytes. The data set can be described thus: Gametocytocidal ATP-depletion assay (gametocyte ATP bioluminescence). It is filed as cell-based, Plasmodium falciparum. An outline of the steps:
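Read-out is luciferase luminescence of parasite ATP (BacTiter-Glo), standing in for viability. Double-purified mature stage IV–V gametocytes, 12,500 per well, were exposed 48 h at 37 °C in low-O2 gas; screening concentration 2 μM.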

For another data set, the system named is HepG2 cells. The data set can be described thus: HepG2 cytotoxicity assay. It is filed as cell-based. The conditions noted are these: mean. The procedure, abridged: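 Cell viability is measured by CellTiter-Glo luminescence. Signal is developed at room temperature and read 10 min after adding the reagent, with plates and reagent first equilibrated for 30 min.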

In data set [3] the test system is P. falciparum asexual blood stages. The settings on record: read-out: Pf Asexual blood stages XC50, cited from earlier work.
The mark [4] stands for this setting: TCAMS data, ref 1 (Gamo et al., 2010).
The mark [5] stands for this setting: P. falciparum female gametocytes.
[6] abbreviates: TCAMS asexual blood stage data, ref 1 (Gamo, F. J. et al., Nature 465, 305-310, 2010).

In the case of `COc1ccc(N2CCN(CCCCNCc3ccc(NC(=O)c4cc(Cl)cc(Cl)c4)cc3)CC2)c(OC)c1` [TCMDC-138226], the IC50 in data set [1] was 3110 nM; in data set [3] (setting [4]), 250 nM. The “Gametocytes mean ATP inhibition at 2µM (%)” value in data set [2] is reported as 17.06%. For the same compound, the “HepG2 cells mean TOX50” value in the data set with HepG2 cells turned out to be 4.42 µM.

On to `COc1ccc(OC)c(-c2cccc(-c3cccc(NC(=O)c4ccc([N+](=O)[O-])o4)c3)n2)c1` [TCMDC-124799], for which the IC50 in data set [1] (setting [5]) was 960 nM; in data set [3] (setting [6]) it was 370 nM. Further, the “Gametocytes mean ATP inhibition at 2µM” value in data set [2] is on record as 25.78%. Moreover, the “HepG2 cells mean TOX50” value with HepG2 cells (HepG2 cells) is recorded as 3.63 µM.

As for `COc1cc2nc(N3CCC(CNC(=O)c4ccc(-c5ccc(-c6noc(C)n6)cc5C)cc4)CC3)nc(N)c2cc1OC` [TCMDC-138155], the values for the IC50 in data set [1] and in data set [3] (setting [4]) were 1680 nM and 220 nM, respectively. The “Gametocytes mean ATP inhibition at 2µM (%)” value in data set [2] came out at 5.13%. Further, the “HepG2 cells mean TOX50” value in the data set with HepG2 cells amounted to 7.62 µM.

In the case of `Cc1ccc(C(=O)Nc2ccc(Nc3ccnc4cc(-c5ccccn5)ccc34)cc2O)cc1.Cl` [TCMDC-138205], the IC50 is 540 nM in data set [1] and 110 nM in data set [3] (setting [4]). In addition, the “Gametocytes mean ATP inhibition at 2µM (%)” value in data set [2] amounted to 46.13%. Further, the “HepG2 cells mean TOX50” value in the data set on HepG2 cells is reported as 1.27 µM.

With `COc1cc2c(OC)cccc2cc1CNCCCCCCNCc1cc2cccc(OC)c2cc1OC.CS(=O)(=O)O` [TCMDC-137945], the IC50 was 1820 nM in data set [1] and 820 nM in data set [3] (setting [4]). Also, the “Gametocytes mean ATP inhibition at 2µM (%)” value in data set [2] was -15.51%. Moreover, the “HepG2 cells mean TOX50” value in the data set on HepG2 cells came to 4.90 µM.

`CC(Cc1ccc(CNC(=O)c2ccc(CC(C)NCCc3cccc(Cl)c3)cc2)cc1)NCCc1cccc(Cl)c1` (stereo not drawn) [TCMDC-139659]: the IC50 in data set [1] was 860 nM; in data set [3] (setting [4]) it was 700 nM. For the same compound, in data set [2], the “Gametocytes mean ATP inhibition at 2µM (%)” value is listed as -0.70%. For the same compound, in the data set on HepG2 cells, the “HepG2 cells mean TOX50” value was determined as 2.26 µM.

With `O=C(NCCCCN1CCC(c2ccc3c(c2OCCN2CCCC2)CCCC3)CC1)c1ccc(-c2ccc(C(F)(F)F)cc2)cc1` [TCMDC-138768], the figures for the IC50 in data set [1] and in data set [3] (setting [4]) were 1980 nM and 450 nM, respectively. The “Gametocytes mean ATP inhibition at 2µM (%)” value in data set [2] is -10.59%. Also, the “HepG2 cells mean TOX50” value with HepG2 cells is reported as 5.39 µM.

For the compound `CCN1CCN(c2ccc(Nc3c4ccccc4nc4ccccc34)cc2)CC1` [TCMDC-124255], the IC50 in data set [1] (setting [5]) is 1000 nM; in data set [3] (setting [6]) it was 720 nM. Besides, the “Gametocytes mean ATP inhibition at 2µM” value in data set [2] was 12.43%. Besides, the “HepG2 cells mean TOX50” value in the data set with HepG2 cells (HepG2 cells) amounted to 4.57 µM.

For `C[C@H](Cc1ccc(C[C@@H](C)NC[C@H](O)c2cccc(Cl)c2)cc1)NC[C@H](O)COc1ccccc1.Cl` [TCMDC-131549], the IC50 in data set [1] (setting [5]) is 1390 nM; in data set [3] (setting [6]) it was 1170 nM. The “Gametocytes mean ATP inhibition at 2µM” value in data set [2] was determined as 20.38%. In the data set with HepG2 cells (HepG2 cells), the “HepG2 cells mean TOX50” value is given as 5.19 µM.

`CC(Cc1ccc(NC(=O)c2ccc(CNCCCCc3ccccc3)cc2)cc1)NCCc1cccc(Cl)c1.Cl` (stereo not drawn) [TCMDC-139866]: the IC50 in data set [1] was 1120 nM; in data set [3] (setting [4]), 330 nM. Also, in data set [2], the “Gametocytes mean ATP inhibition at 2µM (%)” value is on record as 18.31%. Moreover, the “HepG2 cells mean TOX50” value in the data set on HepG2 cells came out at 1.97 µM.

For the compound `Fc1ccc2[nH]c(-c3cccc(-c4ccc(CN5CCC(CCN6CCCCC6)CC5)cc4)c3)nc2c1.O=C(O)C(F)(F)F` [TCMDC-133940], the values for the IC50 in data set [1] (setting [5]) and in data set [3] (setting [6]) were 1880 nM and 140 nM, respectively. In addition, in data set [2], the “Gametocytes mean ATP inhibition at 2µM” value is -4.48%. The “HepG2 cells mean TOX50” value in the data set with HepG2 cells (HepG2 cells) came out at 4.79 µM.

For the compound `CCCCN(CCCC)/C(=N/C(=N)NCc1ccc(Cl)c(Cl)c1)NCCCCCCN/C(=N\C(=N)NCc1ccc(Cl)c(Cl)c1)N(CCCC)CCCC` [TCMDC-131821], the IC50 in data set [1] (setting [5]) was 2510 nM; in data set [3] (setting [6]), 400 nM. Besides, the “Gametocytes mean ATP inhibition at 2µM” value in data set [2] is 63.54%. For the same compound, the “HepG2 cells mean TOX50” value in the data set on HepG2 cells (HepG2 cells) amounted to 13.96 µM.

`CCOc1ccccc1CCNC(C)Cc1ccc(C(=O)Nc2ccc(CC(C)NCCc3cccc(Cl)c3)cc2)cc1` (stereo not drawn) [TCMDC-139805]: the IC50 in data set [1] was 1390 nM; in data set [3] (setting [4]) it was 540 nM. Moreover, the “Gametocytes mean ATP inhibition at 2µM (%)” value in data set [2] was found to be 17.68%. Besides, the “HepG2 cells mean TOX50” value in the data set with HepG2 cells was 3.24 µM.

Take `CS(=O)(=O)O.FC(F)(F)COc1ccc2ccccc2c1CNCCCCCCNCc1c(OCC(F)(F)F)ccc2ccccc12` [TCMDC-137816]: the IC50 is 1090 nM in data set [1] and 350 nM in data set [3] (setting [4]). In data set [2], the “Gametocytes mean ATP inhibition at 2µM (%)” value is 27.96%. Moreover, in the data set with HepG2 cells, the “HepG2 cells mean TOX50” value is given as 1.84 µM.

As to `CCn1c(-c2nonc2N)nc2c(-c3cccc(NC(=O)Nc4ccc(C(F)(F)F)cc4)c3)ncc(OCCCN)c21.O=C(O)C(F)(F)F` [TCMDC-136179], the IC50 was 910 nM in data set [1] and 1050 nM in data set [3] (setting [4]). Besides, in data set [2], the “Gametocytes mean ATP inhibition at 2µM (%)” value is -5.44%. Further, in the data set on HepG2 cells, the “HepG2 cells mean TOX50” value came to 5.62 µM.

With `COc1cc(-c2cc(-c3ccc(S(C)(=O)=O)cc3)cnc2N)ccc1O` [TCMDC-133343], the figures for the IC50 in data set [1] (setting [5]) and in data set [3] (setting [6]) were 390 nM and 100 nM, respectively. In addition, the “Gametocytes mean ATP inhibition at 2µM” value in data set [2] was 57.72%. Further, the “HepG2 cells mean TOX50” value in the data set with HepG2 cells (HepG2 cells) is listed as 41.69 µM.

Consider `CC(C)(C)c1ccc(CNC(=O)c2cc(CNC3CCNCC3)ccc2O)cc1` [TCMDC-140775], for which the IC50 in data set [1] is 2000 nM; in data set [3] (setting [4]), 710 nM. Further, the “Gametocytes mean ATP inhibition at 2µM (%)” value in data set [2] was -11.19%. Further, the “HepG2 cells mean TOX50” value in the data set with HepG2 cells is 13.96 µM.

As for `CN1CCCC1CCNCc1cccc(-c2cnc(N3CCCC(C)(C)C3)nc2)c1` (stereo not drawn) [TCMDC-133144], the figures for the IC50 in data set [1] (setting [5]) and in data set [3] (setting [6]) were 1670 nM and 930 nM, respectively. Also, in data set [2], the “Gametocytes mean ATP inhibition at 2µM” value is 3.15%. Besides, the “HepG2 cells mean TOX50” value in the data set on HepG2 cells (HepG2 cells) is recorded as 4.63 µM.

On to `CC1(C)CC(NCCCCCCCOc2ccc(OCc3ccccc3)cc2)CC(C)(C)N1.Cl` [TCMDC-138958], for which the results for the IC50 in data set [1] and in data set [3] (setting [4]) were 1230 nM and 830 nM, respectively. For the same compound, in data set [2], the “Gametocytes mean ATP inhibition at 2µM (%)” value was 38.17%. In the data set with HepG2 cells, the “HepG2 cells mean TOX50” value came to 2.75 µM.

`COc1ccc2nc(N=C3NC4(c5ccccc5)NC(=Nc5nc6ccc(OC)cc6[nH]5)NC4(c4ccccc4)N3)[nH]c2c1.O=C(O)C(F)(F)F` (stereo not drawn) [TCMDC-139632]: the IC50 in data set [1] was 120 nM; in data set [3] (setting [4]) it was 200 nM. In data set [2], the “Gametocytes mean ATP inhibition at 2µM (%)” value is 67.82%. Further, the “HepG2 cells mean TOX50” value in the data set with HepG2 cells is 62.72 µM.

Take `CC(C)N1CCN(C(CN2CCN(CCCOc3ccc(-c4ccccc4)cc3)CC2)c2ccc(F)cc2)CC1.Cl` (stereo not drawn) [TCMDC-135497]: the values for the IC50 in data set [1] (setting [5]) and in data set [3] (setting [6]) were 1420 nM and 680 nM, respectively. The “Gametocytes mean ATP inhibition at 2µM” value in data set [2] was determined as 6.50%. The “HepG2 cells mean TOX50” value with HepG2 cells (HepG2 cells) stood at 2.29 µM.

For the compound `CC(C)(C)c1ccc(CN2CCC(CNC(=O)c3cc(-c4ccccc4Cl)cs3)C2)cc1.O=C(O)C(F)(F)F` (stereo not drawn) [TCMDC-134445], the IC50 is 1010 nM in data set [1] (setting [5]) and 860 nM in data set [3] (setting [6]). Also, the “Gametocytes mean ATP inhibition at 2µM” value in data set [2] is -16.96%. Further, in the data set on HepG2 cells (HepG2 cells), the “HepG2 cells mean TOX50” value is on record as 6.17 µM.

As for `COc1cc2nc(NCCCN3CCCCC3)nc(NCc3ccccc3)c2cc1OC` [TCMDC-132012], the values for the IC50 in data set [1] (setting [5]) and in data set [3] (setting [6]) were 900 nM and 1000 nM, respectively. The “Gametocytes mean ATP inhibition at 2µM” value in data set [2] amounted to 19.39%. The “HepG2 cells mean TOX50” value in the data set on HepG2 cells (HepG2 cells) came out at 6.84 µM.

As to `Nc1nc(N)c2c(ccc3[nH]c(-c4ccccc4Cl)nc32)n1` [TCMDC-137840], the IC50 in data set [1] is 4420 nM; in data set [3] (setting [4]), 230 nM. Further, the “Gametocytes mean ATP inhibition at 2µM (%)” value in data set [2] was 22.85%. In the data set with HepG2 cells, the “HepG2 cells mean TOX50” value worked out at 2.32 µM.
